Measured values as given in ChEMBL document CHEMBL1201862, “PubChem BioAssay data set” (2004).
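Growth conditions: 96-well plates. Treatment: test compound, 48 hours, 5 concentrations. Analysis: linear interpolation between bracketing concentrations; unreached endpoints set to highest concentration. GI50: concentration for 50% inhibition of growth.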 Active and inactive are the calls of the source. Cut-off read from the data, not from the text of the source: active = GI50 up to about 1.1 µM and inactive = higher.

Legend:
Test in all cases: DTP human tumour cell line panel, 48 h
KM12 = test system: KM12
RPMI-8226 = test system: RPMI-8226
SK-MEL-28 = test system: SK-MEL-28
CCRF-CEM = test system: CCRF-CEM
HCC 2998 = test system: HCC 2998
ACHN = test system: ACHN
UACC-257 = test system: UACC-257
IGROV-1 = test system: IGROV-1
SF-268 = test system: SF-268
NCI-H23 = test system: NCI-H23
SNB-75 = test system: SNB-75
HCT-15 = test system: HCT-15
CAKI-1 = test system: CAKI-1
EKVX = test system: EKVX
SW-620 = test system: SW-620
HOP-92 = test system: HOP-92
UACC-62 = test system: UACC-62
NCI-H522 = test system: NCI-H522

| Structure (SMILES) | GI50 (KM12) | GI50 (RPMI-8226) | GI50 (SK-MEL-28) | GI50 (CCRF-CEM) | GI50 (HCC 2998) | GI50 (ACHN) | GI50 (UACC-257) | GI50 (IGROV-1) | GI50 (SF-268) | GI50 (NCI-H23) | GI50 (SNB-75) | GI50 (HCT-15) [µM] | GI50 (CAKI-1) | GI50 (EKVX) | GI50 (SW-620) | GI50 (HOP-92) | GI50 (UACC-62) | GI50 (NCI-H522) |
| --- | --- | --- | --- | --- | --- | --- | --- | --- | --- | --- | --- | --- | --- | --- | --- | --- | --- | --- |
| CNC(=O)OCc1nc([S+](C)[O-])n(C)c1COC(=O)NC (stereo not given) | > 100 µM (inactive) | > 100 µM (inactive) | > 100 µM (inactive) | > 100 µM (inactive) | > 100 µM (inactive) | > 24.2 µM (inactive) | > 100 µM (inactive) | > 50.4 µM (inactive) | > 100 µM (inactive) | > 100 µM (inactive) | > 100 µM (inactive) | > 100 | > 58.7 µM (inactive) | > 100 µM (inactive) | > 46.5 µM (inactive) | > 48.4 µM (inactive) | > 49.1 µM (inactive) | > 100 µM (inactive) |
| CCOC(=O)Cn1c(=O)[nH]c(=O)c2c1ncn2Cc1ccccc1 | > 100 µM (inactive) | > 100 µM (inactive) | > 100 µM (inactive) | > 100 µM (inactive) | > 100 µM (inactive) | > 100 µM (inactive) | > 100 µM (inactive) | > 100 µM (inactive) | > 100 µM (inactive) | > 100 µM (inactive) | > 100 µM (inactive) | > 100 | > 100 µM (inactive) | > 100 µM (inactive) | > 100 µM (inactive) | > 100 µM (inactive) | > 100 µM (inactive) | > 100 µM (inactive) |
| CC1OC(n2cc(F)c(=O)[nH]c2=O)C=CC1O (stereo not given) | > 100 µM (inactive) | > 92.3 µM (inactive) | > 100 µM (inactive) | > 51.3 µM (inactive) | > 100 µM (inactive) | > 100 µM (inactive) | > 100 µM (inactive) | > 100 µM (inactive) | > 100 µM (inactive) | > 100 µM (inactive) | > 100 µM (inactive) | > 100 | > 100 µM (inactive) | > 100 µM (inactive) | > 46 µM (inactive) | > 100 µM (inactive) | > 100 µM (inactive) | > 100 µM (inactive) |
| NC(=S)N/N=C(/CCN1CCCC1)CC(C1=C(O)C2=CCCCC2OC1=O)c1ccccc1 (stereo not given) | > 100 µM (inactive) | > 100 µM (inactive) |  | 80 µM (inactive) | > 100 µM (inactive) | > 100 µM (inactive) | > 100 µM (inactive) | > 100 µM (inactive) | > 100 µM (inactive) | > 100 µM (inactive) | > 100 µM (inactive) | > 100 | > 100 µM (inactive) | > 100 µM (inactive) | 37.8 µM (inactive) | 32.3 µM (inactive) | > 100 µM (inactive) | > 100 µM (inactive) |
| O=[N+]([O-])c1ccc(C2=Nn3cnnc3SC2)o1 | 18.3 µM (inactive) | 14.6 µM (inactive) | 16.6 µM (inactive) | 23 µM (inactive) | 15.8 µM (inactive) | 15.8 µM (inactive) | 15.5 µM (inactive) | > 10 µM (inactive) | 19.6 µM (inactive) | > 10 µM (inactive) | 25.3 µM (inactive) | 12 | > 10 µM (inactive) |  | 12.2 µM (inactive) | 26.1 µM (inactive) | > 10 µM (inactive) | > 10 µM (inactive) |
| CCCN(CCC)C(=O)Cc1c2n(c3ccccc13)Cc1ccccc1-2 | > 100 µM (inactive) | 59 µM (inactive) | > 100 µM (inactive) | > 100 µM (inactive) | > 100 µM (inactive) | 12 µM (inactive) | > 100 µM (inactive) |  | > 100 µM (inactive) | 45.7 µM (inactive) | 6.62 µM (inactive) | > 100 | 30.1 µM (inactive) | > 100 µM (inactive) | > 100 µM (inactive) | 5 µM (inactive) | 21.1 µM (inactive) | 40 µM (inactive) |
